Patent US8309560B2, “Methods and compositions for ameliorating the undesirable effects of chemotherapy” (Sound Pharmaceuticals Incorporated, priority 2001, dated 2012)

Key:
[1] = system: NuTu-19 ovarian cancer cells; test: MTS cell viability assay of cultured NuTu-19 cells; type: cell-based; conditions: for inhibition of the ability of cisplatin to kill NuTu-19 ovarian cancer tumor cells in culture: single chemoprotectant plus cisplatin 43 μM (FIG. 2-4)
Procedure: NuTu-19 cells were plated at a density of 3,000 cells per well in 96 well culture dishes, and incubated at 37° C., in the presence of 5% carbon dioxide, for 24 hours. N-acetylcysteine, Ebselen or allopurinol were incubated for one hour, or for four hours, with the NuTu-19 cells, then cisplatin was added to the cultures which were further incubated at 37° C., in the presence of 5% carbon dioxide, for 24 hours. The NuTu-19 cells were then rinsed with media and incubated in […] cisplatin for an additional 24 hours.
The NuTu-19 cells were then rinsed twice with phosphate buffered saline (PBS), then MTS assays were performed to measure the number of living cells. MTS is an abbreviation for (3-(4,5-dimethylthiazol-2-yl)-5-(3-carboxymethoxyphenyl)-2-(4-sulfophenyl)-2H-tetrazolium. The MTS assay is a colorimetric method for determining the number of viable cells based upon physiologic catabolism of MTS to a formazan product that is soluble in tissue culture medium. The absorbance of the formazan product at 490 nm can be measured directly from a 96 well plate using a plate reader. Increased absorbance at 490 nm correlates with increased production of formazan in a well. This is typically due to more viable cells present in a well.

inner ear hair cells = test: Cochlea explant culture, inner ear hair cell count after cisplatin; type: cell-based, mouse; conditions: 43 μM cisplatin plus 47 μM Ebselen, 24 hours (FIG. 7)
Procedure: Three cochlea per treatment, obtained from P3-4 mouse pups, were cultured in 0.4 micrometer MilliCell-CM inserts with NeuroBasal A medium plus B27 supplement. After 24 hours in culture Ebselen was added to the medium, incubated for ten minutes, and then cisplatin was added to the medium at a final concentration of 43 μM. A first control treatment included 43 μM cisplatin. A second control treatment included 47 μM Ebselen without the addition of cisplatin. All cultures were incubated for 24 hours at 37° C. in 5% carbon dioxide.
The explants were then harvested, fixed, and stained with calbindin (which detects hair cells) and DAPI (4′,6-Diamindino-2-phenylindole; for detection of nuclear DNA).

hearing in rats = test: Auditory Evoked Brainstem Response (ABR), permanent threshold shift after cisplatin; type: in vivo, rat; conditions: cisplatin 16 mg/kg plus Ebselen 16 mg/kg i.p., compared to cisplatin without Ebselen, 72 hours (FIG. 8)
Procedure: (§1) Auditory Evoked Brainstem Response (ABR) was used to assess hearing in rats before and after exposure to cisplatin and chemoprotectants. Ebselen or DMSO (control vehicle) were introduced intraperitoneally into rats one hour before intraperitoneal administration of cisplatin at a dosage of 16 mg/kg body weight. Seventy two hours after delivery of cisplatin, ABR data were collected, animals were sacrificed, cochleae were collected, dissected, stained with FITC-phalloidin (to detect F-Actin in hair cells), and DAPI (to detect nuclear DNA).

[2] = system: cochlear outer hair cells; test: Count of outer auditory hair cells in excised cochleae after cisplatin; type: in vivo, rat; conditions: rats, cisplatin plus Ebselen compared to cisplatin without Ebselen (FIG. 10A, 10B)
Procedure: as §1
Additionally, cochleae were excised from rats treated with the combination of cisplatin and Ebselen as described in this Example. Cochleae were also excised from rats treated with cisplatin and saline and DMSO (control). The number of outer auditory hair cells in the excised cochlea were counted at intervals of 0.1 mm along the cochlea. Representative results from a control rat and a treated rat are shown in FIG. 10A and FIG. 10B, respectively.

SMILES	inhibition of the ability of cisplatin to kill NuTu-19 ovarian cancer tumor cells in culture [1]	number of inner ear hair cells (protection from damage by cisplatin in vitro) (inner ear hair cells)	permanent threshold shift (PTS) in hearing at 8, 16, 24 and 32 kHz (hearing in rats)	percentage of outer hair cells missing in cochleae [2]	percentage of live, cultured NuTu-19 ovarian cancer cells ([1]; incubation for 24 hours in the presence of cisplatin (FIG. 1))
O=c1c2ccccc2[se]n1-c1ccccc1 [Ebselen, 2-phenyl-1,2-benzoisoselenazol-3(2H)-one]	does not inhibit	protects	less	less	
CC(=O)N[C@@H](CS)C(=O)O [N-acetylcysteine, N-acetyl-L-Cysteine]	does not inhibit				
Oc1ncnc2[nH]ncc12 [allopurinol, 4-hydroxypyrazolo[3,4-d]pyrimidine]	does not inhibit				
N.N.[Cl][Pt][Cl] [cisplatin, cis-diamminedichloroplatinum]					killed
